Assay results: patent publication US10899699B2, “Vinylogous phenethylamines as neurotransmitter releasers” (RESEARCH TRIANGLE INSTITUTE, priority 2016, dated 2021)
Where two headings read alike, the source gives them in different places.

Assays:
[1] = molecular target: T1, Dopamine Transporter (DAT) (Rattus norvegicus, UniProt P23977); assay: DAT release assay, rat brain synaptosomes; format: biochemical; conditions: for EC50: release of [3H]MPP+ from rat striatum synaptosomes, mean±SD (n=3)
T1 construct: Synaptosomes were prepared from rat striatum for the DAT assays; from tissue; host or cells: rat striatum synaptosomes
Protocol: (§1) BAT activity was measured using synaptosomes prepared from rat brain homogenates according to the protocol developed by Rothman and co-workers (Rothman, et al., Eur. J. Pharmacol. 2002, 447(1), 51). Compounds were first screened in uptake inhibition and release assays to determine the exact mode of drug action. […] Substrate reversal experiments were conducted to validate substrate activity. The analogs were also tested for agonist activity at the serotonin-2 receptor subtypes (5-HT2A, 5-HT2B, 5-HT2C) using in vitro calcium mobilization assays in transfected HEK293 cells as previously described. These receptors are associated with the pharmacology of abused drugs, as 5-HT2A agonists are thought to be hallucinogenic while […] are associated with valvular heart disease and pulmonary hypertension; activity at these receptors would be considered off-target liabilities. On the other hand, agonists at 5-HT2C may be beneficial as potential pharmacotherapies for drug abuse and appetite suppression.
(§2) All animal studies were conducted in facilities fully accredited by the Association for the Assessment and Accreditation of Laboratory Animal Care (AAALAC) and experiments were performed in accordance with the Institutional Care and Use Committee (IACUC) of the National Institute on Drug Abuse Intramural Research Program (NIDA IRP). Rats were euthanized by CO2 narcosis, and brains were processed to yield synaptosomes as previously described (Rothman, R B, et al., Eur. J. Pharmacol. 2002, 447(1), 51.). Synaptosomes were prepared from rat striatum for the DAT assays, whereas synaptosomes were prepared from whole brain minus striatum and cerebellum for the NET and SERT assays.
(§3) For release assays, 9 nM [^3H]1-methyl-4-phenylpyridinium ([^3H]MPP+) was used as the radiolabeled substrate for DAT and NET, while 5 nM [^3H]5-HT was used as a substrate for SERT. All buffers used in the release assay methods contained 1 μM reserpine to block vesicular uptake of substrates. The selectivity of release assays was optimized for a single transporter by including unlabeled blockers to prevent the uptake of [^3H]MPP+ or [^3H]5-HT by competing transporters. Synaptosomes were preloaded with radiolabeled substrate in Krebs-phosphate buffer for 1 h (steady state). Release assays were initiated by adding 850 μL of preloaded synaptosomes to 150 μL of test drug. Release was terminated by vacuum filtration and retained radioactivity was quantified as described for uptake inhibition. Concentration-response curves were generated to yield EC50 values.
(§4) Substrate reversal experiments were conducted to validate substrate activity. The releasing ability of test compounds was tested at an EC80 concentration in the absence and presence of an uptake inhibitor (250 nM […] for DAT, 166 nM desipramine for NET, 100 nM fluoxetine for SERT).

[2] = molecular target: Norepinephrine Transporter (NET) (Rattus norvegicus, UniProt Q9WTR4); format: biochemical; conditions: read-out: EC50, (nM ± SD) NET; release of [3H]MPP+ from rat brain synaptosomes; mean±SD (n=3)
[3] = molecular target: T2, 5-HT2B (Homo sapiens, UniProt P41595); assay: 5-HT2B calcium mobilization assay in HEK293 cells (agonist activity); format: cell-based; conditions: calcium mobilization, agonist, HEK293; for EC50: read-out: 5-HT2B EC50, (nM ± SEM)
T2 construct: expressed in transfected cells
Protocol: (§5) BAT activity was measured using synaptosomes prepared from rat brain homogenates according to the protocol developed by Rothman and co-workers (Rothman, et al., Eur. J. Pharmacol. 2002, 447(1), 51). Compounds were first screened in uptake inhibition and release assays to determine the exact mode of drug action. Compounds active in both assays are releasers while compounds active only in the uptake inhibition assay are uptake inhibitors. Active compounds were then fully characterized by running 8-point concentration response curves in the assay corresponding to their mechanism of action. Substrate reversal experiments were conducted to validate substrate activity. The analogs were also tested for agonist activity at the serotonin-2 receptor subtypes (5-HT2A, 5-HT2B, 5-HT2C) using in vitro calcium mobilization assays in transfected HEK293 cells as previously described. These receptors are associated with the pharmacology of abused drugs, as 5-HT2A agonists are thought to be hallucinogenic while […] are associated with valvular heart disease and pulmonary hypertension; activity at these receptors would be considered off-target liabilities. On the other hand, agonists at 5-HT2C may be beneficial as potential pharmacotherapies for drug abuse and appetite suppression.
(§6) HEK293 cells stably expressing the human 5-HT2A receptor were used. The day before the assay, cells were plated into 96-well black-walled assay plates at 40,000 cells/well in DMEM-HG supplemented with 10% fetal bovine serum, 100 units of penicillin and streptomycin, and 15 mM HEPES. The cells were incubated overnight at 37° C., 5% CO2. Prior to the assay, Calcium 5 dye (Molecular Devices) was reconstituted according to the manufacturer instructions. The reconstituted dye was diluted 1:40 in pre-warmed (37° C.) assay buffer (1×HBSS, 20 mM HEPES, 2.5 mM probenecid, pH 7.4 at 37° C.). Growth medium was removed and the cells were gently washed with 100 μL of pre-warmed (37° C.) assay buffer. The cells were incubated for 45 minutes at 37° C., 5% CO2 in 200 μL of the diluted Calcium 5 dye. Serial dilutions of the test compounds were prepared in 1% DMSO/assay buffer, aliquoted into 96-well polypropylene plates, and warmed to 37° C. After the dye-loading incubation period, the cells were pre-treated with 25 μL of 9% DMSO/assay buffer and incubated for 15 min at 37° C. After the pre-treatment incubation period, the plate was read with a FlexStation® II (Molecular Devices). Calcium-mediated changes in fluorescence were monitored every 1.52 seconds over a 60 second time period, with the FlexStation® II adding 25 μL of test compound dilutions at the 19 second time point (excitation at 485 nm, detection at 525 nm). Peak kinetic reduction (SoftMax, Molecular Devices) relative fluorescent units (RFU) were plotted against compound concentration. Data were fit to the appropriate three-parameter logistic curve to generate EC50 values (GraphPad Prism 6.0, GraphPad Software, Inc., San Diego, Calif.). 5-HT2B and 5-HT2C calcium mobilization assays were run in the same manner with stable 5-HT2B and 5-HT2C HEK293 cells except that 35,000 cells/well were used instead of 40,000 cells/well.

[4] = molecular target: T3, 5-HT2C (Homo sapiens, UniProt P28335); assay: 5-HT2C calcium mobilization assay in HEK293 cells (agonist activity); format: cell-based; conditions: HEK293; for Emax at 10 µM: read-out: 5-HT2C activity relative to the control 5-HT EMAX; for EC50: read-out: 5-HT2C EC50, (nM ± SEM)
T3 construct: expressed in transfected cells
T3 sequence (P28335 33-458): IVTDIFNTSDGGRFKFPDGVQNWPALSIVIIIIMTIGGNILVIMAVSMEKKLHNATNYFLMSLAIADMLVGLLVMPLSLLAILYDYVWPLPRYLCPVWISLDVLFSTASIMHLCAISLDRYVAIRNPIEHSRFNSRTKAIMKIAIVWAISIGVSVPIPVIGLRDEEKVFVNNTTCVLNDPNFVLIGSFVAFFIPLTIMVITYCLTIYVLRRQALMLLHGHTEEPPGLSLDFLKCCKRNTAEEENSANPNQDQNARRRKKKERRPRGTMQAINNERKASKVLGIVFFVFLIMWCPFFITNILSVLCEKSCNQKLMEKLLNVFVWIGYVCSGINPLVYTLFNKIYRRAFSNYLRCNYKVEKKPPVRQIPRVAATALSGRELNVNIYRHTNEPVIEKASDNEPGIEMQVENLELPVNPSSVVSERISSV
Protocol: as §5, §6

[5] = molecular target: T4, Serotonin Transporter (SERT) (Rattus norvegicus, UniProt P31652); assay: SERT release assay, rat brain synaptosomes; format: biochemical; conditions: for EC50: release of [3H]5-HT from rat brain synaptosomes, mean±SD (n=3)
T4 construct: synaptosomes were prepared from whole brain minus striatum and cerebellum for the NET and SERT assays; from tissue; host or cells: rat whole brain minus striatum and cerebellum, synaptosomes
Protocol: as §1, §2, §3, §4

[6] = molecular target: T5, human 5-HT2A receptor (Homo sapiens, UniProt P28223); assay: 5-HT2A calcium mobilization assay in HEK293 cells (agonist activity); format: cell-based; conditions: for Emax / EC50 / 5-HT2A EC50, (nM ± SEM): calcium mobilization; for Emax: efficacy
T5 construct: expressed in transfected cells
Protocol: as §5, §6

[7] = tested on: Norepinephrine Transporter (NET); format: biochemical, rat
[8] = agonist, HEK293, read-out: 5-HT2A EC50, (nM ± SEM)

T4 sequence (P31652 whole entry): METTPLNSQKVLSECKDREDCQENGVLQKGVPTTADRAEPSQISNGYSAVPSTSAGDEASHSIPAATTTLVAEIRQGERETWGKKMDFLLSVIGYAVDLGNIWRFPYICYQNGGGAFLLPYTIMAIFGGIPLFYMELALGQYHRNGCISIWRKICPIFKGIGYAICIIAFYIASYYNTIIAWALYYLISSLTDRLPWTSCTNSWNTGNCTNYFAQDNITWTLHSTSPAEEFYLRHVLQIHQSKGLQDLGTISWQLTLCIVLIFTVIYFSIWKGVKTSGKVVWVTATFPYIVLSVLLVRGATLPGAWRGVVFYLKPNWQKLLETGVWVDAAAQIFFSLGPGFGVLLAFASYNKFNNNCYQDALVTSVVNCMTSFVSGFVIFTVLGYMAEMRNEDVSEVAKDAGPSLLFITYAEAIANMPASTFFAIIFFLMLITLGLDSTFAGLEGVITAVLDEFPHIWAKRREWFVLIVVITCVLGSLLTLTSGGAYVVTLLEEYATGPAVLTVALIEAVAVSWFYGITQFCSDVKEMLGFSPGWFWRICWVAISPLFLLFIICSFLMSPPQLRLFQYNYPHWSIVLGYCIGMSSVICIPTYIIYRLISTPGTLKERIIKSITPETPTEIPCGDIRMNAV
T5 sequence (P28223 whole entry): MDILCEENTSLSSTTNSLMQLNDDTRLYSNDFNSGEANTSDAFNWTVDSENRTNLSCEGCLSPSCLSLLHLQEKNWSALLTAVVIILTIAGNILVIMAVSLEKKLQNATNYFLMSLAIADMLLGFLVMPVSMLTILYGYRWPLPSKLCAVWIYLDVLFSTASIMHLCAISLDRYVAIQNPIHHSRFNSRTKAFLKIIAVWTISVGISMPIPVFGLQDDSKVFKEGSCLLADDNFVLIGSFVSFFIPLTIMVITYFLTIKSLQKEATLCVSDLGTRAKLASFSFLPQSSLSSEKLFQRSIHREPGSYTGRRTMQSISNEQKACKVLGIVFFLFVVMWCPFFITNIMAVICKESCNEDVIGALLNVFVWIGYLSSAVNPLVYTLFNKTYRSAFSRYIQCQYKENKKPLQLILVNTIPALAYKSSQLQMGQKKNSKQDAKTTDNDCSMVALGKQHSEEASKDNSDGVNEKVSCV
T1 sequence (P23977 whole entry): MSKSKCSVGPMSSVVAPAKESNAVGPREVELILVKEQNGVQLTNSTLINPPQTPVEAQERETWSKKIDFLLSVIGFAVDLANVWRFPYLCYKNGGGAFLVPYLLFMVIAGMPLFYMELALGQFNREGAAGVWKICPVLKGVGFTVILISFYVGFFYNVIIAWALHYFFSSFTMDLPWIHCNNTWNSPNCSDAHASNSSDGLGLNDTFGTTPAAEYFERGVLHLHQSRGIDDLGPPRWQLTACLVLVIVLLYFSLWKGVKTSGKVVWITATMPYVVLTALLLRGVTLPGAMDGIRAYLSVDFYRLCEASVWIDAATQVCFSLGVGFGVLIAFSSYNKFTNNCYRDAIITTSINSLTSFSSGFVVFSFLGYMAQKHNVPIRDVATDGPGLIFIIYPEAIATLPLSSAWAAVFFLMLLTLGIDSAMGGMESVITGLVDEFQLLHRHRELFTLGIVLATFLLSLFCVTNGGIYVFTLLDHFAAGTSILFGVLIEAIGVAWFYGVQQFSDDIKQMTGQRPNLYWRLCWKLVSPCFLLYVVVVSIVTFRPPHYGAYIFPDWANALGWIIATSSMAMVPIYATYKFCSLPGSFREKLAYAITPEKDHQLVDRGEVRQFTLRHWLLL
T2 sequence (P41595 whole entry): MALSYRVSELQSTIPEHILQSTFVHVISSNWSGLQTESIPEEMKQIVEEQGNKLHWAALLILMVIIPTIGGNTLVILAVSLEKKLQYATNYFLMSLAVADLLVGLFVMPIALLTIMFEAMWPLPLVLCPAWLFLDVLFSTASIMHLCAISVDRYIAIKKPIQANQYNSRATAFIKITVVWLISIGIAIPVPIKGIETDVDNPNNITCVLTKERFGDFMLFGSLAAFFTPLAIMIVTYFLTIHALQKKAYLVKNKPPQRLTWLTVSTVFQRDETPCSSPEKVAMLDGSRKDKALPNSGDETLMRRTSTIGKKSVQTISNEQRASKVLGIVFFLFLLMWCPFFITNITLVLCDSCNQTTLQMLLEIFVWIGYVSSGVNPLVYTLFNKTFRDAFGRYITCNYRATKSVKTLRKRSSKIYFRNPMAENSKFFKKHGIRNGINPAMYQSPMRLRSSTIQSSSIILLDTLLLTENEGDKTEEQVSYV

| Compound | potency for releasing DA relative to 5-HT [1] [fold] | EC50 [1] [nM] | EC50 [2] [nM] | EC50 [3] [nM] | Emax at 10 µM [4] [%] | EC50 [5] [nM] | Emax ([6]; HEK293) [%] | EC50 [6, 8] [nM] | EC50 ([4]; calcium mobilization, agonist) [nM] | potency for releasing 5-HT relative to DA (SERT/DAT selectivity) [5] | fold reduction in potency at 5-HT2A compared to 8 [6] [fold] | selectivity for releasing NE relative to DA (NET compared to DAT) [7] [fold] | 5-HT2A EC50, (nM ± SEM) ([6]; agonist, HEK293) | potency at releasing DA compared to NE [1] | 5-HT2B EC50, (nM ± SEM) [3] | 5-HT2C EC50, (nM ± SEM) ([4]; calcium mobilization, agonist) | potency for 5-HT release compared to NE release [5] [fold] | selectivity for releasing 5-HT compared to DA, given as fold more potent at the DAT [1] [fold] | EC50 ([6]; read-out: 5-HT2A EC50) [nM] |
| --- | --- | --- | --- | --- | --- | --- | --- | --- | --- | --- | --- | --- | --- | --- | --- | --- | --- | --- | --- |
| C[C@H](N)C/C=C\c1ccccc1 [S-8, (1S,3Z)-1-Methyl-4-phenyl-but-3-enylamine] | 2.2 | 304 | 170 | > 10000 | < 50 | 863 ± 86 | 102 | 1600 | – | – | – | – | – | – | – | – | – | – | – |
| C[C@H](N)CC#Cc1ccccc1 [S-4, (1S)-1-Methyl-4-phenyl-but-3-ynylamine] | – | 443 | 784 ± 190 | > 10000 | – | 756 ± 79 | ~80 | 4950 ± 1400 | > 10000 | essentially equipotent | 2.7 | – | – | – | – | – | – | – | – |
| CC(N)/C=C/c1ccccc1 (centres unmarked) [compound 10, (2E)-1-Methyl-3-phenyl-prop-2-enylamine] | – | 666 | 308 ± 100 | > 10000 | – | – | – | > 10000 | > 10000 | – | – | 2.2 | inactive | – | – | – | – | – | – |
| CC(N)C/C=C\c1ccccc1 (racemic) [compound 8, (3Z)-1-Methyl-4-phenyl-but-3-enylamine] | – | 900 ± 100 | 621 ± 190 | > 10000 | < 50 | 646 | 90 | 1860 | > 10000 | 1.4 fold | – | – | – | – | – | – | – | – | – |
| C[C@H](N)C/C=C/c1ccccc1 [S-6, (1S,3E)-1-Methyl-4-phenyl-but-3-enylamine] | – | 206 | 138 | > 10000 | – | 40 | – | > 10000 | > 10000 | 5 fold | – | – | inactive | almost equal | inactive | inactive | 3.5 | – | – |
| CC(N)/C=C\c1ccccc1 (centres unmarked) [compound 11, (2Z)-1-Methyl-3-phenyl-prop-2-enylamine] | – | 1110 ± 150 | 301 ± 76 | > 10000 | – | – | – | > 10000 | > 10000 | – | – | 3.7 | inactive | – | – | – | – | – | – |
| C[C@@H](N)CC#Cc1ccccc1 [R-4, (1R)-1-Methyl-4-phenyl-but-3-ynylamine] | – | 660 ± 190 | 496 | > 10000 | – | 288 | – | – | > 10000 | – | – | – | – | – | – | – | – | 2.3 | – |
| CC(N)C/C=C/c1ccccc1 (racemic) [compound 6, (3E)-1-Methyl-4-phenyl-but-3-enylamine] | – | 272 ± 44 | 239 ± 59 | > 10000 | – | 54 ± 8 | ~80 | 5620 ± 1700 | > 10000 | – | 3 | – | – | – | – | – | – | – | – |
| CC(N)CC#Cc1ccccc1 (racemic) [compound 4, 1-Methyl-4-phenyl-but-3-ynylamine] | – | 997 | 2980 | > 10000 | – | 384 ± 110 | – | > 10000 | > 10000 | – | – | – | – | 3 fold | – | – | – | 2.6 | > 10000 |
| C[C@@H](N)C/C=C/c1ccccc1 [R-6, (1R,3E)-1-Methyl-4-phenyl-but-3-enylamine] | – | 540 | 279 ± 24 | > 10000 | – | 109 ± 29 | – | – | > 10000 | – | – | – | – | – | – | – | – | – | – |
